Measurements published in patent US8802597B2, “Herbicidal pyrimidines” (E I du Pont de Nemours and Company, priority 2003, dated 2014).

Tests used:
Format in all cases: in vivo
[1] = system: rice flatsedge (Cyperus iria); test: Test E flooded paddy water application; conditions: Flood, 21 days, scale 0 to 100 (0 no effect, 100 complete control)
In short: (§1)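 Weeds sown in sterilized Tama silt loam (2.6% organic matter), greenhouse 29.5/26.7° C, 16-h photoperiod; at 2.0–2.5-leaf stage pots flooded to 3 cm and compound added to paddy water. Visual rating vs untreated controls after 21 days, 0 (no effect) to 100 (complete control).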

[2] = system: late watergrass (Echinochloa oryzicola); test: Test E flooded paddy water application; conditions: Flood, 21 days, scale 0 to 100 (0 no effect, 100 complete control)
In short: as §1

[3] = system: water seeded rice seedlings (Oryza sativa cv. ‘Japonica-M202’); test: Test E flooded paddy water application; conditions: Flood, 21 days, scale 0 to 100 (0 no effect, 100 complete control)
In short: as §1

[4] = system: junglerice (Echinochloa colona); test: Test E flooded paddy water application; conditions: Flood, 21 days, scale 0 to 100 (0 no effect, 100 complete control)
In short: as §1

[5] = system: barnyardgrass (Echinochloa crus-galli); test: Test E flooded paddy water application; conditions: Flood, 21 days, scale 0 to 100 (0 no effect, 100 complete control)
In short: as §1

[6] = system: smallflower umbrella sedge (Cyperus difformis); test: Test E flooded paddy water application; conditions: Flood, 21 days, scale 0 to 100 (0 no effect, 100 complete control)
In short: as §1

[7] = system: purple redstem (Ammannia coccinea); test: Test E flooded paddy water application; conditions: Flood, 21 days, scale 0 to 100 (0 no effect, 100 complete control)
In short: as §1

[8] = system: transplanted rice seedlings (Oryza sativa cv. ‘Japonica-M202’); test: Test E flooded paddy water application; conditions: Flood, 21 days, scale 0 to 100 (0 no effect, 100 complete control)
In short: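 Greenhouse pots of Tama silt loam with weeds and rice at 2.0–2.5-leaf stage, flooded to 3 cm; compounds applied directly into paddy water, depth maintained. Visual rating versus untreated controls after 21 days, 0 (no effect) to 100 (complete control); 29.5/26.7 °C, 16-h photoperiod.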

[9] = system: ducksalad (Heteranthera limosa); test: Test E flooded paddy water application; conditions: Flood, 21 days, scale 0 to 100 (0 no effect, 100 complete control)
In short: as §1

[10] = system: early watergrass (Echinochloa oryzoides); test: Test E flooded paddy water application; conditions: Flood, 21 days, scale 0 to 100 (0 no effect, 100 complete control)
In short: as §1

[11] = system: bearded (brdd.) sprangletop (Leptochloa fusca ssp. fascicularis); test: Test E flooded paddy water application; conditions: Flood, 21 days, scale 0 to 100 (0 no effect, 100 complete control)
In short: as §1

[12] = system: barnyardgrass (Echinochloa crus-galli); test: Test A pre/postemergence
In short: (§2)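 Seeds in loam–sand blend received preemergence directed soil spray and, concurrently, postemergence application (plants 2–10 cm, 1–2-leaf stage) of compound in non-phytotoxic solvent with surfactant. After about ten days in greenhouse, injury rated visually versus untreated controls, 0 (no effect) to 100 (complete control).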

[13] = system: morningglory (Ipomoea spp.); test: Test A pre/postemergence
In short: as §2

[14] = system: crabgrass (Digitaria sanguinalis); test: Test A pre/postemergence
In short: as §2

[15] = system: redroot pigweed (Amaranthus retroflexus); test: Test A pre/postemergence
In short: as §2

[16] = system: giant foxtail (Setaria faberi); test: Test A pre/postemergence
In short: as §2

[17] = system: velvetleaf (Abutilon theophrasti); test: Test A pre/postemergence
In short: as §2

[18] = Postemergence, 125 g ai/ha, 0 to 100 scale (0 no effect, 100 complete control)
[19] = Postemergence, 500 g ai/ha, 0 to 100 scale (0 no effect, 100 complete control)
[20] = Preemergence, 125 g ai/ha, 0 to 100 scale where 0 is no effect and 100 is complete control, approximately ten days
[21] = Preemergence, 500 g ai/ha, 0 to 100 scale where 0 is no effect and 100 is complete control, approximately ten days

CNc1nc(-c2ccc(Cl)cc2)nc(C(=O)OC)c1Cl [Compound 111]
Flatsedge, Rice plant response rating ([1]; 32 g ai/ha): 0
Flatsedge, Rice plant response rating ([1]; 64 g ai/ha): 0
Flatsedge, Rice plant response rating ([1]; 125 g ai/ha): 0
Flatsedge, Rice plant response rating ([1]; 250 g ai/ha): 0
Plant response rating, Flatsedge, Rice ([1]; 16 g ai/ha): 0
Watergrass, Late plant response rating ([2]; 32 g ai/ha): 0
Watergrass, Late plant response rating ([2]; 64 g ai/ha): 0
Watergrass, Late plant response rating ([2]; 125 g ai/ha): 0
Watergrass, Late plant response rating ([2]; 250 g ai/ha): 0
Plant response rating, Watergrass, Late ([2]; 16 g ai/ha): 0
Rice, Water Seeded plant response rating ([3]; 32 g ai/ha): 0
Rice, Water Seeded plant response rating ([3]; 64 g ai/ha): 0
Rice, Water Seeded plant response rating ([3]; 125 g ai/ha): 0
Rice, Water Seeded plant response rating ([3]; 250 g ai/ha): 0
Plant response rating, Rice, Water Seeded ([3]; 16 g ai/ha): 0
Junglerice plant response rating ([4]; 32 g ai/ha): 0
Junglerice plant response rating ([4]; 64 g ai/ha): 0
Junglerice plant response rating ([4]; 125 g ai/ha): 0
Junglerice plant response rating ([4]; 250 g ai/ha): 0
Plant response rating, Junglerice ([4]; 16 g ai/ha): 0
Barnyardgrass plant response rating ([5]; 32 g ai/ha): 0
Barnyardgrass plant response rating ([5]; 64 g ai/ha): 0
Barnyardgrass plant response rating ([5]; 125 g ai/ha): 0
Barnyardgrass plant response rating ([5]; 250 g ai/ha): 0
Plant response rating, Barnyardgrass ([5]; 16 g ai/ha): 0
Sedge, Umbrella plant response rating ([6]; 32 g ai/ha): 0
Sedge, Umbrella plant response rating ([6]; 64 g ai/ha): 0
Sedge, Umbrella plant response rating ([6]; 125 g ai/ha): 0
Sedge, Umbrella plant response rating ([6]; 250 g ai/ha): 75
Plant response rating, Sedge, Umbrella ([6]; 16 g ai/ha): 0
Redstem plant response rating ([7]; 32 g ai/ha): 20
Redstem plant response rating ([7]; 64 g ai/ha): 30
Redstem plant response rating ([7]; 125 g ai/ha): 30
Redstem plant response rating ([7]; 250 g ai/ha): 75
Plant response rating, Redstem ([7]; 16 g ai/ha): 0
Rice, Transplanted plant response rating ([8]; 32 g ai/ha): 0
Rice, Transplanted plant response rating ([8]; 64 g ai/ha): 0
Rice, Transplanted plant response rating ([8]; 125 g ai/ha): 0
Rice, Transplanted plant response rating ([8]; 250 g ai/ha): 0
Plant response rating, Rice, Transplanted ([8]; 16 g ai/ha): 0
Ducksalad plant response rating ([9]; 32 g ai/ha): 0
Ducksalad plant response rating ([9]; 64 g ai/ha): 85
Ducksalad plant response rating ([9]; 125 g ai/ha): 100
Ducksalad plant response rating ([9]; 250 g ai/ha): 100
Plant response rating, Ducksalad ([9]; 16 g ai/ha): 0
Watergrass, Early plant response rating ([10]; 32 g ai/ha): 0
Watergrass, Early plant response rating ([10]; 64 g ai/ha): 0
Watergrass, Early plant response rating ([10]; 125 g ai/ha): 0
Watergrass, Early plant response rating ([10]; 250 g ai/ha): 0
Plant response rating, Watergrass, Early ([10]; 16 g ai/ha): 0
Sprangletop, Brdd. plant response rating ([11]; 32 g ai/ha): 0
Sprangletop, Brdd. plant response rating ([11]; 64 g ai/ha): 0
Sprangletop, Brdd. plant response rating ([11]; 125 g ai/ha): 0
Sprangletop, Brdd. plant response rating ([11]; 250 g ai/ha): 0
Plant response rating, Sprangletop, Brdd. ([11]; 16 g ai/ha): 0
Plant response rating, Barnyardgrass [12, 18]: 0
Plant response rating, Barnyardgrass [12, 19]: 10
Plant response rating, Barnyardgrass [12, 20]: 0
Plant response rating, Barnyardgrass [12, 21]: 0
Plant response rating, Morningglory [13, 18]: 20
Plant response rating, Morningglory [13, 19]: 50
Plant response rating, Morningglory [13, 20]: 0
Plant response rating, Morningglory [13, 21]: 0
Plant response rating, Crabgrass [14, 18]: 5
Plant response rating, Crabgrass [14, 19]: 30
Plant response rating, Crabgrass [14, 20]: 0
Plant response rating, Crabgrass [14, 21]: 0
Plant response rating, Pigweed [15, 18]: 55
Plant response rating, Pigweed [15, 19]: 85
Plant response rating, Pigweed [15, 20]: 0
Plant response rating, Pigweed [15, 21]: 0
Plant response rating, Foxtail, Giant [16, 18]: 0
Plant response rating, Foxtail, Giant [16, 19]: 0
Plant response rating, Foxtail, Giant [16, 20]: 0
Plant response rating, Foxtail, Giant [16, 21]: 0
Plant response rating, Velvetleaf [17, 18]: 75
Plant response rating, Velvetleaf [17, 19]: 85
Plant response rating, Velvetleaf [17, 20]: 0
Plant response rating, Velvetleaf [17, 21]: 0
